Results reported in US8513484B2, “Fish cancer model” (Temasek Life Sciences Laboratory Limited, priority 2005, dated 2013).

Legend:
[1] = test system: EGFP-positive cells of embryos injected with EGFP-zK-rasB(V12) construct; experiment: Drug tests on zebrafish embryos injected with EGFP-zK-rasB(V12) construct (neoplastic transformation of EGFP-positive cells); assay type: in vivo; conditions: for Effects: preliminary screen; for specific effect on the EGFP-positive cells: 1 μg/ml; for effect on the transformed cells: 3 μg/ml
Experimental: 5-10 pg of plasmid DNA were injected into zebrafish embryos at the 1-2-cell stage. The actual concentration of DNA was empirically adjusted to produce 50% embryo survival rate.
A SMZ1500 Stereoscopic Zoom Microscope (Nikon) equipped with the epi-fluorescence attachment and DXM1200F digital camera (Nikon) with original software was used for image analysis.

developing embryo = experiment: Toxicity of drugs for the developing embryo; assay type: in vivo, zebrafish
Experimental: Drugs from BIOMOL® ICCB Known Bioactives Library Cat #2840 were used for drug tests. Drugs were diluted in standard fish water from the 5-mg/ml DMSO stock solutions. The injected embryos were sorted at 8 hours post fertilization (hpf) and the normally developing were selected for drug treatment. Ten to fifteen embryos per well were plated into 24-well microtiter plate and overlayed with 1.5 ml drug solution at 10 hpf. Embryos were incubated in the dark at 28° C. The results were observed every day until 5 days post fertilization (dpf).
To evaluate feasibility of the model for drug discovery, a mini-screening was performed using selected compounds from BIOMOL® ICCB Known Bioactives Library. The embryos injected with EGFP-zK-rasB(V12) construct were treated with various drugs in 24-well microtiter plates. The drugs were administered into the standard fish water starting at 10 hpf. Concentration of drugs was proposed based on data from a preliminary screening for developmental toxicity.

[2] = test system: E-cadherin-mediated cell adhesion system; conditions: by restoring E-cadherin-mediated cell adhesion system; Nam et al., 2002; cited from earlier work
[3] = 10 μg/ml in fish water from 10 hpf
[4] = 3 μg/ml in fish water from 10 hpf

**Q.** For `CC[C@H](C)[C@@H](CO[C@@H](Cc1ccccc1)C(=O)N[C@@H](CCS(C)(=O)=O)C(=O)OC(C)C)NC[C@@H](N)CS` [L-744,832], which Effects [1, 3] is on record?
**A.** NO

**Q.** With `O=c1cc(N2CCOCC2)oc2c(-c3ccccc3)cccc12` [LY294002] as the compound, how does the Effects [1, 4] read?
**A.** NO

**Q.** For `Cc1ccc(-c2nn(C(C)(C)C)c3ncnc(N)c23)cc1` [PP1], which “specific effect on the EGFP-positive cells” value [1] is on record?
**A.** considerably reduced

**Q.** What about the “effect on the transformed cells” value [1] of the same compound?
**A.** maintained flat shape while continued to grow

**Q.** What about the Effects [1, 4] of the same compound?
**A.** Keeps cells flat and attached

**Q.** And the “toxicity for developing embryo” value (developing embryo; 1 μg/ml)?
**A.** tolerable

**Q.** What about the “toxicity for developing embryo” value (developing embryo; 3 μg/ml) of the same compound?
**A.** toxic

**Q.** For `Cc1ccc(NC(=O)c2cccc(N(C)C)c2)cc1NC(=O)c1ccc(O)cc1` [ZM336372], which Effects [1, 3] is on record?
**A.** NO

**Q.** Which Effects ([1]; 0.003 μg/ml in fish water from 10 hpf) does the source give for `CC[C@H](C)C(=O)O[C@H]1C[C@@H](C)C=C2C=C[C@H](C)[C@H](CC[C@@H]3C[C@@H](O)CC(=O)O3)[C@H]21` [Lovastatin] here?
**A.** Cytotoxic, non-specific effects

**Q.** With `O=C1Nc2ccc(I)cc2/C1=C/c1cc(Br)c(O)c(Br)c1` [GW-5074] as the compound, how does the Effects ([1]; 1 μg/ml in fish water from 10 hpf) read?
**A.** Cytotoxic, non-specific effects

**Q.** Which Effects [1, 4] does the source give for `CCCC[C@@H](C)/C=C(C)/C=C(\C)C(=O)NC1=C[C@@](O)(/C=C/C=C/C=C/C(=O)NC2=C(O)CCC2=O)[C@@H]2O[C@@H]2C1=O` [Manumycin A] here?
**A.** NO

**Q.** For `COc1cccc(-c2cc(=O)c3ccccc3o2)c1N` [PD98059], which “growth of the EGFP-positive cells” value ([1]; 3 ng/ml) is on record?
**A.** strongly impairs growth

**Q.** And the “shape and attachment of EGFP-positive cells” value ([1]; 3 ng/ml, by 72 hpf)?
**A.** smaller, maintain flat shape and remain attached to the embryo

**Q.** And the Effects [1, 4]?
**A.** preserves the epithelial

**Q.** And the “concentration at which toxic effects on development become serious” value (developing embryo; zebrafish, in vivo)?
**A.** 10 ng/mL

**Q.** For `CC(C)(C)n1nc(-c2ccc(Cl)cc2)c2c(N)ncnc21` [PP2], which “specific effect on the EGFP-positive cells” value [1] is on record?
**A.** considerably reduced

**Q.** What about the “effect on the transformed cells” value [1] of the same compound?
**A.** maintained flat shape while continued to grow

**Q.** What about the Effects [1, 4] of the same compound?
**A.** Keeps cells flat and attached

**Q.** What about the “metastatic spread of cancer” value [2] of the same compound?
**A.** reduced metastatic spread of cancer

**Q.** And the “toxicity for developing embryo” value (developing embryo; 1 μg/ml)?
**A.** tolerable

**Q.** What about the “toxicity for developing embryo” value (developing embryo; 3 μg/ml) of the same compound?
**A.** toxic
